Converted amounts (≈) assume the structure as drawn. Read-outs that look alike come from different tables or passages of the source.
Assays:
[1] = test system: human pluripotent stem cells; parameters: method as in PMID 24154490; details: cited from earlier work
[2] = test system: µP-hPSC colonies (H9) under mesoendoderm induction; test: µP-hPST: mesoendoderm pattern disruption in µP-hPSC colonies and two-step teratogen classification; details: for Mesoendoderm pattern disruption seen in T fluorescent images: 3 days of compound exposure, in words; for Teratogenicity in µP-hPST / Teratogenicity in µP-hPST (in words): two-step classification rule
[3] = test system: human embryonic cell line H9; test: Cytotoxicity assay (MTS), embryonic cytotoxicity; assay type: cell-based; details: H9 cells, 3 days, 25% inhibitory concentration
Procedure: (§1) A set of 30 compounds of known teratogenicity was selected to establish and validate the µP-hPST (Table 1). The compounds include equal number of non-teratogens and teratogens, and differ in chemical property and therapeutic usage. Before tested in the µP-hPSC colonies, the cytotoxicity profile of each compound was acquired. Two cell lines, hPSC line H9 and adult human dermal fibroblast line aHDF, were tested to represent embryonic cytotoxicity and general cytotoxicity of the compound respectively (Supplementary Figs S1, S2). The IC25 values, which were the 25% inhibitory concentrations, were calculated as the highest non-cytotoxic concentrations of the compound (Table 2, Fig. 1).
(§2) Human embryonic cell line H9 (WiCell Research Institute, Inc) and adult human dermal fibroblast (aHDF, Lonza) were cultured as previously described. Briefly, H9 cells were cultured in tissue culture plates coated with Matrigel^TM (354277, BD Biosciences) in mTeSR^TM1 medium (05850, StemCell^TM Technologies). Dispase (07923, StemCell^TM Technologies) treatment and mechanical scraping were applied during normal subculture. The aHDF cells was cultured in DMEM medium (10569-010, Gibco), supplemented with 10% FBS (SV30160.03, Thermo Scientific Hyclone) and 1% Pen-Strep (09367-34, Nacalai Tesque). Cells were subcultured every 5–6 days using 0.25% Trypsion-EDTA (25200-114, Gibco) to detach the cells.
(§3) The adverse effect of test compounds on cell proliferation and viability was detected using CellTiter 96® AQueous One Solution Cell Proliferation Assay (MTS, G3580, Promega). 10,000 H9 cells or 500 aHDF cells were seeded in 96-well tissue culture plates. For H9 cells, Matrigel^TM was coated before seeding. For each compound, 8 concentrations from serial 5-fold dilutions were tested besides the vehicle controls. Cells were cultured for 3 days with medium half change every day before cell viability was measured. Each drug was tested in three independent runs and its IC25 values (inhibitory concentrations which can cause 25% of reduction in cell number) were acquired by logistic regression using OriginPro 9.

[4] = cited from earlier work; for In vivo teratogenicity (in words): Supplementary Tables S2, S3; for In vivo teratogenicity: Table 1, known teratogenicity
[5] = cited from earlier work
[6] = test system: µP-hPSC colonies (H9) under mesoendoderm induction
[7] = test system: µP-hPSC colonies (H9) under mesoendoderm induction; parameters: method as in earlier work; details: compounds tested previously; cited from earlier work
[8] = test system: adult human dermal fibroblasts (aHDF); test: Cytotoxicity assay (MTS), general cytotoxicity; assay type: cell-based; details: aHDF cells, 3 days, 25% inhibitory concentration
Procedure: as §1, §2, §3

[9] = test system: mouse embryonic stem cell; parameters: method as in PMID 19678733; details: cited from earlier work
hPSC = test system: hPSC; parameters: method as in PMID 24123775; details: cited from earlier work
[10] = human plasma, ref U.S. FDA website, EMA website or published journals (Supplementary Table S1)

SMILES | Teratogenicity in other in vitro assays [1] | Teratogenicity in µP-hPST [2] | IC25H9 [3] | In vivo teratogenicity (in words) [4] | In vivo teratogenicity [4] | Cmax [5, 10] | LDC [7] | IC25aHDF [8] | Teratogenicity in µP-hPST (in words) [2] | also measured
CCN(CC)CCNC(=O)c1c(C)[nH]c(/C=C2\C(=O)Nc3ccc(F)cc32)c1C [Sunitinib] | TER[7] | TER | 0.89 µg/mL (≈ 2.23 µM) | Teratogen | TER | 30 ng/mL | – | – | – | Mesoendoderm pattern disruption seen in T fluorescent images [2]: promote mesoendoderm differentiation while decrease collective cell migration
CC1=C(/C=C/C(C)=C/C=C/C(C)=C/C(=O)O)C(C)(C)CCC1 [Retinoid acid] | – | – | – | Teratogen | – | – | 0.36 ng/mL | – | – | Step1: Is LDC <= IC25 aHDF & IC25H9? [6]: Y; Teratogenicity in µP-hPST (in words) [6]: Teratogen; Cmax ([5]; compounds tested previously): 347 ng/mL
COc1cc2c(Nc3ccc(Br)cc3F)ncnc2cc1OCC1CCN(C)CC1 [Vandetanib] | TER[7] | TER | 0.3 µg/mL (≈ 0.631 µM) | Teratogen | TER | 400 ng/mL | – | 1.1 µg/mL (≈ 2.31 µM) | – | –
COc1cccc2c1C(=O)c1c(O)c3c(c(O)c1C2=O)C[C@@](O)(C(=O)CO)C[C@@H]3O[C@H]1C[C@H](N)[C@H](O)[C@H](C)O1 [Doxorubicin] | TER[7] | TER | 0.0002 µg/mL (≈ 0.000368 µM) | Teratogen | TER | 370 ng/mL | – | – | – | IC25aHDF ([8]; listed as Doxirubicin): < 1 µg/mL; IC25H9 ([3]; listed as Doxirubicin): < 1 µg/mL
CC/C(=C(/CC)c1ccc(O)cc1)c1ccc(O)cc1 [Diethylstilbestrol] | TER[7] | NON | 8.8 µg/mL (≈ 32.8 µM) | Teratogen | TER | 5.6 ng/mL | – | 6.1 µg/mL (≈ 22.7 µM) | misclassified as a non-teratogen | Mesoendoderm pattern disruption seen in T fluorescent images [2]: promote cell migration
NS(=O)(=O)c1cc(C(=O)O)c(NCc2ccco2)cc1Cl [Furosemide] | – | TER | 362 µg/mL (≈ 1090 µM) | Teratogen | TER | – | – | 30 µg/mL (≈ 90.7 µM) | teratogen | Classification in mEST (in words) [9]: misclassified; Teratogenicity in other in vitro assays [9]: NON[28]
O=C1Cc2cc(CCN3CCN(c4nsc5ccccc45)CC3)c(Cl)cc2N1 [Ziprasidone] | TER[7] | TER | 14.4 µg/mL (≈ 34.9 µM) | Teratogen | TER | 200 ng/mL | – | 2.7 µg/mL (≈ 6.54 µM) | – | –
CCCC(CCC)C(=O)O [Valproic acid] | – | – | – | Teratogen | – | – | 0.1 mM | – | Teratogen | –
COc1ccc2nc([S@@+]([O-])Cc3ncc(C)c(OC)c3C)[nH]c2c1 [Esomeprazole] | NON[7] | NON | 38.9 µg/mL (≈ 113 µM) | – | NON | 1620 ng/mL | – | 42.1 µg/mL (≈ 122 µM) | – | –
O=C1CCC(N2C(=O)c3ccccc3C2=O)C(=O)N1 (stereo not drawn) [Thalidomide] | – | – | – | Teratogen | – | – | 0.03 mM | – | Teratogen | Cmax ([5]; compounds tested previously, read-out: Cmax): 10.9 µM
O=c1[nH]cc(F)c(=O)[nH]1 [5-Fluorouracil] | TER[6], [7] | TER | – | Teratogen | TER | 48400 ng/mL | – | – | – | Mesoendoderm pattern disruption seen in T fluorescent images [2]: promote both cell differentiation and migration; Teratogenicity in other in vitro assays (hPSC): TER[6], [7]
CC(C)(S)[C@@H](N)C(=O)O [D-penicillamine] | – | – | – | Teratogen | – | – | 200000 ng/mL | – | Teratogen | Cmax ([5]; compounds tested previously): 200000 ng/mL
C[C@](N)(Cc1ccc(O)c(O)c1)C(=O)O [Methyldopa] | NON[7] | NON | 23.2 µg/mL (≈ 110 µM) | – | NON | 7500 ng/mL | – | 15.9 µg/mL (≈ 75.3 µM) | – | –
